Results: patent publication US20210040428A1, “MICROFLUIDIC DEVICE AND METHOD FOR DETERMINING CELL ELECTRICAL BARRIER PROPERTIES” (University of Southampton, priority 2018, published 2021)

Test system: differentiated culture of primary bronchial human cells
Test: Barrier disruption at the air-liquid interface: epithelial barrier resistance Rc by impedance spectroscopy before and after EGTA stimulation
Format: cell-based
Conditions: paired t-test
Experimental: Impedance spectra were measured before and after EGTA stimulation either submerged or at the air-liquid interface. The extrapolated values of the equivalent resistance Rc were compared with TER values.
FIG. 17 is a bar chart of fitted resistance values, Rc, showing the disruption induced by the EGTA stimulation.
Electrical impedance spectroscopy (EIS) measurements were performed using the two electrodes configuration of an Alpha-A impedance analyser (Novocontrol Technologies, Germany). A frequency sweep was performed between 100 Hz and 100 kHz, with an applied voltage of 0.05 V(rms). Prior to the EIS measurement, the medium in the apical compartment was replaced with different volumes (200 μl, 50 μl, 20 μl, 10 μl) of fresh medium at room-temperature. Each Transwell® support was placed on top of the planar electrodes only for the duration of the measurement (≈30 s). Trans-epithelial electrical resistance (TER) measurements were performed using chopstick electrodes connected to an EVOM2 Epithelial Volt-ohm-meter (World Precision Instruments).
A custom script was developed in Matlab (© 2015 The MathWorks) to fit the complex electrical impedance data with the equivalent electric circuit model. The objective function to be minimized during the fitting was defined as: […]
The absolute value of the impedance was used as the normalizing factor. […]

## O=C(O)CN(CCOCCOCCN(CC(=O)O)CC(=O)O)CC(=O)O [EGTA, ethylene glycol-bis(β-aminoethyl ether)-N,N,N′,N′-tetraacetic acid]
air-liquid interface measurement
  fitted resistance Rc of the epithelial barrier, change after stimulation compared to the control: statistically significant (paired t-test) drop
Submerged measurement
  fitted resistance Rc of the epithelial barrier, change after stimulation compared to the control: statistically significant (paired t-test) drop
